Test results as given in patent publication US20120076775A1, “Combination of HGF Inhibitor and EGF Inhibitor to Treat Cancer” (priority 2008, published 2012).

Assays:
[1] = tested on: U87EGFRvIII xenografts; experiment: U87EGFRvIII s.c. xenograft, tumor growth; format: in vivo; conditions: s.c. U87EGFRvIII in immunodeficient mice; mAbs i.p. 5 mg/kg days 8, 12, 15; erlotinib 150 mg/kg 6 times per week
Procedure: Illustrative but not limiting examples of immunodeficient strains of mice that can be used are nude mice such as CD-1 nude, Nu/Nu, Balb/c nude, NIH-III (NIH-bg-nu-xid BR); scid mice such as Fox Chase SCID (C.B-17 SCID), Fox Chase outbred SCID and SCID Beige; mice deficient in RAG enzyme; as well as nude rats. Experiments are carried out as described previously (Kim et al., Nature 362:841, 1992, which is incorporated herein by reference). Human tumor cells typically grown in complete DMEM medium are typically harvested in HBSS. Female immunodeficient, e.g., athymic nude mice (4-6 wks old) are injected s.c. with typically 5×10^6 cells in 0.2 ml of HBSS in the dorsal areas. When the tumor size reaches 50-100 mm^3, the mice are grouped randomly and appropriate amounts of the agents are administered. […] Tumor sizes are determined typically twice a week by measuring in two dimensions [length (a) and width (b)]. Tumor volume is calculated according to V=ab^2/2 and expressed as mean tumor volume±SEM. […] The effect of the agents may measured by growth of the tumor with time, prolongation of the survival of the mice, or increase in percent of the mice surviving at a given time or indefinitely. […]

[2] = tested on: U87EGFRvIII intracranial xenografts; experiment: U87EGFRvIII intracranial xenograft, survival; format: in vivo, mice; conditions: treated day 5 to 21, 5 mg/kg mAb twice per week, 150 mg erlotinib 6 times per week
Procedure: In this experiment, mice were implanted intracranially with U87EGFRvIII cells as described (Kim et al, op. cit.) in order to more accurately simulate brain tumors. Four groups of mice were treated with control mAb 5G8 or anti-HGF mAb L27, either alone or in combination with erlotinib, from post-implantation day 5 to 21 (5 mg/kg mAb twice per week; 150 mg erlotinib 6 times per week).

[3] = target: cMet receptor (Homo sapiens, UniProt P08581); conditions: literature; read-out: Kd, high affinity binding site for cMet receptor; cited from earlier work
[4] = target: heparin sulfate proteoglycans (HSPG); conditions: literature; read-out: Kd, low affinity binding site for HSPG; cited from earlier work
[5] = tested on: GB-d1 gallbladder tumor xenografts; experiment: GB-d1 gallbladder tumor s.c. xenograft, tumor growth; format: in vivo; conditions: NIH III xid/Beige/nude mice, mAbs 100 μg (approx. 5 mg/kg) twice per week from day 13
Procedure: Human tumor cells typically grown in complete DMEM medium are typically harvested in HBSS. Female immunodeficient, e.g., athymic nude mice (4-6 wks old) are injected s.c. with typically 5×10^6 cells in 0.2 ml of HBSS in the dorsal areas. When the tumor size reaches 50-100 mm^3, the mice are grouped randomly and appropriate amounts of the agents are administered. […] Tumor sizes are determined typically twice a week by measuring in two dimensions [length (a) and width (b)]. Tumor volume is calculated according to V=ab^2/2 and expressed as mean tumor volume±SEM. The number of mice in each treatment group is at least 3, but more often between 5 and 10, e.g., 7. One group of mice is treated with both agents; other groups may be treated with neither agent or with one agent but not the other agent. […] Statistical analysis may be performed using, e.g., Student's t test.
For example, such an experiment was performed with GB-d1 gallbladder tumor xenografts. Female NIH III xid/Beige/nude mice (4-6 wks old) were implanted with tumors by s.c. injection of 10^6 GB-d1 cells in the dorsal areas. When the tumor size reached ˜100 mm^3, the mice were grouped randomly into 4 groups of 5 mice each. […] The mAbs were administered twice per week at 100 μg (approx. 5 mg/kg body weight) from day 13. Tumor sizes were determined twice per week as described above.

cMet receptor, sequence (P08581 25-1390): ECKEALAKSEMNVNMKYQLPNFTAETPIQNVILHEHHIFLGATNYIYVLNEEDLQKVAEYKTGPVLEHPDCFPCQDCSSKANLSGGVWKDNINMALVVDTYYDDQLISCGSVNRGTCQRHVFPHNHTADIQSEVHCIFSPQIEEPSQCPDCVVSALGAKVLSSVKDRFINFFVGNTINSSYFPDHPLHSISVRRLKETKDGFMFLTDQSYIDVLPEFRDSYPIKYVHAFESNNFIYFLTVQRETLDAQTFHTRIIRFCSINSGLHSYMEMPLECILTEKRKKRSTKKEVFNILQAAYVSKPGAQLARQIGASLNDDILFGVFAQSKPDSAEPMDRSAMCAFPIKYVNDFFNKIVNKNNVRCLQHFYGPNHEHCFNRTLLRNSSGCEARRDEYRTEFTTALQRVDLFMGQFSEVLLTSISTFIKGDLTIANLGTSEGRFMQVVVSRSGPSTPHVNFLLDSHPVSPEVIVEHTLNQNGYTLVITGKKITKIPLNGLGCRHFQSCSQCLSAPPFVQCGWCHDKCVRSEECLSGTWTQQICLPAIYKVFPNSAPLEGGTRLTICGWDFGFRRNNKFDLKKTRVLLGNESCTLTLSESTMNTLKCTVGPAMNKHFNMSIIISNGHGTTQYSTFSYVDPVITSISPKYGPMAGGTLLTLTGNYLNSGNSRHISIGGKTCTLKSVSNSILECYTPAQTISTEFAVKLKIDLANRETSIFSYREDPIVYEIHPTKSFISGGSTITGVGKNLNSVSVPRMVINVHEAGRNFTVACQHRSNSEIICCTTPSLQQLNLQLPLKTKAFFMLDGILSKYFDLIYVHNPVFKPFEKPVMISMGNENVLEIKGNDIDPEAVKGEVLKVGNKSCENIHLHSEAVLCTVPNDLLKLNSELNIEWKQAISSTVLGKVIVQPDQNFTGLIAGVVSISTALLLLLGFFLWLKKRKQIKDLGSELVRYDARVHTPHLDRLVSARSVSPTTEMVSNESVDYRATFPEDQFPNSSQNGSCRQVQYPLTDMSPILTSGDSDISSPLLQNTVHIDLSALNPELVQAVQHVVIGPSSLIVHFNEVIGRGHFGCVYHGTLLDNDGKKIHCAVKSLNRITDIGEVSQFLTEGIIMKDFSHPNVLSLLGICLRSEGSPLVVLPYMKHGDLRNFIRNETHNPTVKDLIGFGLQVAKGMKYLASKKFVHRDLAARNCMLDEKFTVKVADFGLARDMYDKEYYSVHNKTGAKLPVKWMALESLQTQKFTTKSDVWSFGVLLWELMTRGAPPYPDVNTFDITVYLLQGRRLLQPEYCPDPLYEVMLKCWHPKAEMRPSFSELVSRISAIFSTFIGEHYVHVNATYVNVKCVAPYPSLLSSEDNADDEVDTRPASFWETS

With C#Cc1cccc(Nc2ncnc3cc(OCCOC)c(OCCOC)cc23)c1 [erlotinib, N-(3-ethynylphenyl)-6,7-bis(2-methoxyethoxy)-4-quinazolinamine] as the molecule, how does the “inhibition of growth of xenografts (FIG. 2)” value [1] read?
The value was “only modestly inhibited growth of the tumors”.

What about the “prolongation of survival (FIG. 3)” value [2] of the same molecule?
Its value is “slightly but significantly prolonged survival”.

For “HGF: 102 kDa heterodimeric polypeptide growth factor, ligand of cMet”, which Kd [3] is on record?
The Kd was 200 pM.

And the Kd [4]?
The Kd was 1000 pM.

Which “inhibition of tumor growth (FIG. 1)” value [5] does the source give for “HuL2G7: humanized L2G7 anti-HGF mAb; heavy and light chains SEQ ID NO:1 and 2” here?
The value was “partially inhibited tumor growth”.
